According to the OligoGym collection:
These antisense oligonucleotides have a phosphorothioate backbone; sugars and methylation of C are not fully specified.

What was measured:
Conditions in all cases: ASO
INPPL1 = molecular target: INPPL1
PTEN = molecular target: PTEN
BIRC2 = molecular target: BIRC2
RIPK1 = molecular target: RIPK1
Note: test concentration or dose not given here.

Sequence: CCAACCTCAAATGTCCCA
- remaining target (mRNA or protein) (fraction of control) (INPPL1): ≥ 1

Sequence: TCTTCTGCAGGATGGAAA
- remaining target (mRNA or protein) (fraction of control) (PTEN): ≥ 1

Sequence: CCAGATTCTGAATAAAGC
- remaining target (mRNA or protein) (fraction of control) (BIRC2): ≥ 1

Sequence: GGTCCTTCTCCTTCTCAA
- remaining target (mRNA or protein) (fraction of control) (INPPL1): 0.52

Sequence: TGTCTCTGGTCCTTACTT
- remaining target (mRNA or protein) (fraction of control) (PTEN): 0.66

Sequence: TTCCCAGTTACTGAGCTT
- remaining target (mRNA or protein) (fraction of control) (BIRC2): 0.22

Sequence: TTAAATTTGGCGGTGTCA
- remaining target (mRNA or protein) (fraction of control) (PTEN): ≥ 1

Sequence: GGAGATGAACTGGGAGGT
- remaining target (mRNA or protein) (fraction of control) (INPPL1): 0.48

Sequence: CGCTCTCGCTGTCTCGGA
- remaining target (mRNA or protein) (fraction of control) (INPPL1): ≥ 1

Sequence: ACTTCAGTTGGTGACAGA
- remaining target (mRNA or protein) (fraction of control) (PTEN): 0.31

Sequence: CCTCATAACTTTTCAACC
- remaining target (mRNA or protein) (fraction of control) (INPPL1): ≥ 1

Sequence: AGACCCACACAGAACAGT
- remaining target (mRNA or protein) (fraction of control) (INPPL1): ≥ 1

Sequence: GACAGCACCAGAGTAACC
- remaining target (mRNA or protein) (fraction of control) (INPPL1): 0.69

Sequence: GACATCACGCCGCAACCC
- remaining target (mRNA or protein) (fraction of control) (INPPL1): 0.39

Sequence: ATTGTTGCTGTGTTTCTT
- remaining target (mRNA or protein) (fraction of control) (PTEN): 0.36

Sequence: ATTCTTATCCACAAATAA
- remaining target (mRNA or protein) (fraction of control) (BIRC2): ≥ 1

Sequence: CCTTGTCCACCTCACTGT
- remaining target (mRNA or protein) (fraction of control) (INPPL1): 0.81

Sequence: GGAAGAACTCTACTTTGA
- remaining target (mRNA or protein) (fraction of control) (PTEN): 0.62

Sequence: TAGAATTAAGAGGGTTTG
- remaining target (mRNA or protein) (fraction of control) (BIRC2): ≥ 1

Sequence: TCCCTCCCCAGACCCACA
- remaining target (mRNA or protein) (fraction of control) (INPPL1): ≥ 1

Sequence: GCACCCCAGCCTCCTCCA
- remaining target (mRNA or protein) (fraction of control) (INPPL1): 0.79

Sequence: TGCTCCTGCCTCATCCTT
- remaining target (mRNA or protein) (fraction of control) (INPPL1): 0.54

Sequence: CGTTGGTGGCGGTTTCTC
- remaining target (mRNA or protein) (fraction of control) (INPPL1): 0.93

Sequence: TCCGTCCTGAGCCTAAAA
- remaining target (mRNA or protein) (fraction of control) (INPPL1): 0.7

Sequence: CAGGAGAAGCCGAGGAAG
- remaining target (mRNA or protein) (fraction of control) (PTEN): 0.49

Sequence: TTTCTTCACATGAACTAA
- remaining target (mRNA or protein) (fraction of control) (BIRC2): ≥ 1

Sequence: TAGAGTTCACAGGAAAAG
- remaining target (mRNA or protein) (fraction of control) (BIRC2): ≥ 1

Sequence: TTAGTTAGCCATAAAATT
- remaining target (mRNA or protein) (fraction of control) (BIRC2): ≥ 1

Sequence: TGCGGCTGGCTGTCTTCA
- remaining target (mRNA or protein) (fraction of control) (INPPL1): 0.85

Sequence: CAAGTTGAAGAGACTGCA
- remaining target (mRNA or protein) (fraction of control) (RIPK1): ≥ 1

Sequence: TGCTAACGATCTCTTTGA
- remaining target (mRNA or protein) (fraction of control) (PTEN): 0.57

Sequence: CCAAGGTGGGAGATAATG
- remaining target (mRNA or protein) (fraction of control) (BIRC2): 0.97

Sequence: TGCCTTTTATTTATATTT
- remaining target (mRNA or protein) (fraction of control) (BIRC2): ≥ 1

Sequence: ATAATTGGTGGGTCAGCA
- remaining target (mRNA or protein) (fraction of control) (BIRC2): ≥ 1

Sequence: AGGTGGATGCACTTCTGA
- remaining target (mRNA or protein) (fraction of control) (BIRC2): ≥ 1

Sequence: GGATCCAGTGGTCTTGTT
- remaining target (mRNA or protein) (fraction of control) (RIPK1): 0.84

Sequence: GAGTAAGAACCACTGAAC
- remaining target (mRNA or protein) (fraction of control) (BIRC2): ≥ 1

Sequence: TGCCCCACCCCAACCAAC
- remaining target (mRNA or protein) (fraction of control) (INPPL1): ≥ 1

Sequence: AATCAACTCTACTAGCCT
- remaining target (mRNA or protein) (fraction of control) (BIRC2): 0.53

Sequence: TGTGCCTCCAGACTCCTC
- remaining target (mRNA or protein) (fraction of control) (INPPL1): 0.59

Sequence: CACCCCAATAAATAGGCA
- remaining target (mRNA or protein) (fraction of control) (INPPL1): ≥ 1

Sequence: TGCTAGCCTCTGGATTTG
- remaining target (mRNA or protein) (fraction of control) (PTEN): 0.26

Sequence: TTCCCAACACCTCAAGCC
- remaining target (mRNA or protein) (fraction of control) (BIRC2): 0.45

Sequence: TTGGCTTAAAGTTCAAAA
- remaining target (mRNA or protein) (fraction of control) (BIRC2): ≥ 1

Sequence: CCATAGGATTCATAGCCA
- remaining target (mRNA or protein) (fraction of control) (INPPL1): ≥ 1

Sequence: ACAGACCAGGAGACAGTG
- remaining target (mRNA or protein) (fraction of control) (INPPL1): 0.94

Sequence: TGTTCCTATAACTGGTAA
- remaining target (mRNA or protein) (fraction of control) (PTEN): 0.42

Sequence: GAATATATCTTCACCTTT
- remaining target (mRNA or protein) (fraction of control) (PTEN): 0.58

Sequence: TTTCCCCATTCTCCAGCT
- remaining target (mRNA or protein) (fraction of control) (RIPK1): 0.85

Sequence: ATTCTCTTCTTGTGGGTG
- remaining target (mRNA or protein) (fraction of control) (RIPK1): ≥ 1

Sequence: ACATAGCGCCTCTGACTG
- remaining target (mRNA or protein) (fraction of control) (PTEN): 0.28

Sequence: TCCCCACTGCCCACTTCC
- remaining target (mRNA or protein) (fraction of control) (INPPL1): ≥ 1

Sequence: GAAGTTTGAGACCAGCCT
- remaining target (mRNA or protein) (fraction of control) (RIPK1): ≥ 1

Sequence: CAGGCGGTAGTTGAGGTC
- remaining target (mRNA or protein) (fraction of control) (INPPL1): ≥ 1

Sequence: AGTCTGTTCATCATCTTC
- remaining target (mRNA or protein) (fraction of control) (RIPK1): 0.96

Sequence: TCCAGGCAGGTAGAGTAG
- remaining target (mRNA or protein) (fraction of control) (INPPL1): ≥ 1

Sequence: TATTTTCATGGTGTTTTA
- remaining target (mRNA or protein) (fraction of control) (PTEN): 0.24

Sequence: AATTATTTCCTTTCTGAG
- remaining target (mRNA or protein) (fraction of control) (PTEN): 0.86

Sequence: TGTTTCAAGCCCATTCTT
- remaining target (mRNA or protein) (fraction of control) (PTEN): 0.35

Sequence: ATCTTAATGACATTCAAG
- remaining target (mRNA or protein) (fraction of control) (RIPK1): ≥ 1

Sequence: GACCACAAGGAATAAATA
- remaining target (mRNA or protein) (fraction of control) (BIRC2): ≥ 1

Sequence: ACTGGAATAAAACGGGAA
- remaining target (mRNA or protein) (fraction of control) (PTEN): 0.85

Sequence: GGATGCGGTCGTGCGTGA
- remaining target (mRNA or protein) (fraction of control) (INPPL1): 0.86

Sequence: AAAAGCTAAGTTCACACA
- remaining target (mRNA or protein) (fraction of control) (BIRC2): ≥ 1

Sequence: TGGTAGGTAAGAAATCTG
- remaining target (mRNA or protein) (fraction of control) (BIRC2): ≥ 1

Sequence: TAGCAAAACCTTTCGGAA
- remaining target (mRNA or protein) (fraction of control) (PTEN): 0.49

Sequence: ATTCGCTTCCCAGCAGAG
- remaining target (mRNA or protein) (fraction of control) (RIPK1): 0.7

Sequence: CCATAGTCCGAGGGCAGT
- remaining target (mRNA or protein) (fraction of control) (INPPL1): 0.88

Sequence: GAGATACTGCCCTGACCC
- remaining target (mRNA or protein) (fraction of control) (INPPL1): ≥ 1

Sequence: CTCTGGTTCTTCAAATAA
- remaining target (mRNA or protein) (fraction of control) (INPPL1): ≥ 1
